“And” between values parts separate entries of the source, which are not always exact repeats. Equal entries are not always repeated. “Also recorded” adds a separate entry of the source.
Tests used:
[1] = test system: viable "live" ex vivo neonatal mouse spinal cords; assay: Real-time SG diffusion and SG-DEXSY measurements on viable spinal cords (Example 3); type: cell-based
Method: MR measurements were performed on viable “live” ex vivo neonatal mouse spinal cords at 13.79 MHz with a low-field single-sided magnet (PM-10 NMR MOUSE, Magritek) (Eidmann, et al., Journal of Magnetic Resonance, Series A, 122(1): 104-109 (1996)) and custom-made RF probe and solenoid coil (see FIG. 29). Diffusion was encoded on sub-micron length scales and sub-millisecond timescales with spin echoes in the presence of a g=15.3 T/m static gradient (SG) (Williamson, et al., Proceedings of the 28th annual International Society of Magnetic Resonance in Medicine (ISMRM) (2020)). SG diffusion measurements (Williamson, et al., Elife, 8: p. e51101 (2019)) and SG diffusion exchange spectroscopy (DEXY)-based exchange rate and spin-lattice relaxation rate measurements (as in Williamson, et al., Journal of Magnetic Resonance, 317: 106782 (2020)), with b1+b2=4.5 ms/μm^2) were repeatedly acquired (11 minutes per set) to observe real-time changes. During measurements, samples were maintained in a constant circulation of artificial cerebrospinal fluid (ACF) and gas and at 25° C.

[2] = test system: ex vivo neonatal mouse spinal cords; assay: Multiexponential analysis of DEXSY exchange time distribution P(τk) (Example 5); type: cell-based; conditions: 100 μM ouabain, 25° C., live tissue
Method: The probability distribution functions of the exchange time were measured, P(τk)=P(1/k) by applying multi exponential analysis using numerical inverse Laplace transforms (ILTs) to data in which the effect of exchange has been isolated. Using a low-field, static gradient system, P(τk) data were acquired from ex vivo neonatal mouse spinal cords in three conditions: fixed, live, and live whilst treated with ouabain, a sodium-potassium pump inhibitor.
The static gradient DEXSY (SG-DEXSY) pulse sequence was implemented on a PM-10 NMR MOUSE single-sided magnet at ω0=13.79 MHz, B0=0.3239 T, g=15.3 T/m with a home-built solenoid RF coil and test chamber. 90°/180° RF pulse lengths=2/2 μs, pulse powers=−22/−16 dB, TR=2 s, 8000 echo CPMG train with TE=25 μs, 8 points per echo, and 0.5 μs dwell time.
Live (i.e., viable) and fixed ex vivo neonatal (postnatal day 1-4) mouse spinal cords were studied. Spinal cords were bathed in artificial cerebrospinal fluid at 95% O2/5% CO2 and 25° C. For the ouabain treatment condition, ouabain was added at a saturating concentration of 100 μM.
Data were acquired at bs=4.5 ms/μm^2 over 69 values of tm=0.2-1000 ms. A biexponential fit to the log-ratio of signals was first performed to yield robust estimates of the intercept C0 and limit f∞/C1 (FIGS. 35A-35D). […]

[3] = test system: live ex vivo neonatal mouse spinal cords; assay: Static-gradient spin echo diffusion NMR (ADCy, restricted fraction f) on live spinal cords (Example 1); type: cell-based
Method: (§1) All experiments were performed on Swiss Webster wild type (Taconic Biosciences, Rensselaer, NY, USA) mice between postnatal day 1 to 4. The mouse spinal cords were isolated and placed in a dissecting chamber perfused with cold low-calcium high magnesium artificial cerebrospinal fluid (aCSF, concentrations in mM: 128.35 NaCl, 4 KCl, 0.5 CaCl2·2H2O, 6 MgSO4·7H2O, 0.58 NaH2PO4·H2O, 21 NaHCO3, 30 D-glucose) bubbled with 95% O2 and 5% CO2). Live spinal cords were transported in low-calcium, high-magnesium aCSF to the NMR experimental apparatus. Fixed spinal cords were kept overnight in 4% paraformaldehyde at 4° C. and then stored in phosphate buffered saline (PBS) at 4° C., and washed with aCSF three times over the course of two days to remove any residual paraformaldehyde prior to experiments. Experiments on fixed and live spinal cords were performed using normal aCSF (same concentrations as the low-calcium high-magnesium solution except for 1.5 mM CaCl2·2H2O and 1 mM MgSO4·7H2O).
The same experimental conditions were used for live and fixed spinal cords. […]
Diffusion experiments were performed using a standard sequence involving a spin echo (SE) for diffusion encoding followed by a CPMG signal acquisition (Rata, et al., Journal of Magnetic Resonance, 180(2): 229-235 (2006). τ (defined as half the SE echo time) was varied linearly from 0.05 to 3.3 ms over 22 steps with 4 scans per τ. This corresponds to b-values ranging from 0.001 to 400 ms/μm^2 where b=2/3γ^2g^2τ^3 (Carr, et al., Physical Review, 94(3): 630 (954), Hahn, Physical Review, 80(4): 580 (1950)). Points two through four (τ=0.2048 to 0.5143 ms, b=0.096 to 1.5 ms/μm^2) of diffusion data were fit with I(b)=I0 exp(−b ADC) to estimate the Apparent Diffusion Coefficient and I0. For measurements on spinal cords, the term ADCy is used, acknowledging that diffusion may be anisotropic but was measured only in the y direction, perpendicular to the cord. […]
(§2) to estimate the restriction radius r and the restricted fraction f. Each estimate incorporated k measured from the rapid exchange experiment during the same set. […]

[4] = test system: live ex vivo neonatal mouse spinal cords; assay: Real-time DEXSY NMR water exchange rate and R1 DW on live spinal cords (Example 1); type: cell-based; conditions: 100 μM ouabain
Method: as §1
A PM 10 NMR MOUSE single-sided permanent magnet (Eidmann, et al., Journal of Magnetic Resonance, 122: 104-109 (1996)) (Magritek, Aachen Germany) and a Kea 2 spectrometer (Magritek, Wellington, New Zealand) were used to perform NMR experiments at B0=0.3239 T (proton ω0=13.79 MHz) and […]. A test chamber and RF probe were fabricated to maximize SNR and maintain live spinal cord viability.
Sample temperature was controlled by heat exchange with one of two circulating water baths (Accel 250 LC, Thermo Scientific, USA, and WCR-P6 Precision Regulated Bath Circulator, Daihan Scientific, Lennox Laboratory supplies, Ireland). […] Sample temperature was monitored by a fiber optic sensor (PicoM, Opsens Solutions Inc., Quebec, Canada). […]
Experimental protocols involved looping through sets of diffusion experiments and rapid DEXSY experiments to acquire repetitions of each. Noise and RF probe tuning were monitored at the beginning of each loop. […]
as §2

[5] = test system: organotypic CNS; conditions: after blocking Na+/K+ pump with ouabain; cited from earlier work
[6] = test system: Na+/K+-ATPase; conditions: cited from earlier work
[7] = test system: fixed spinal cords; assay: Osmolarity perturbation with sucrose, diffusion and DEXSY NMR on fixed spinal cords; parameters: species or system mouse
Method: as §1
Diffusion experiments were performed using a standard sequence involving a spin echo (SE) for diffusion encoding followed by a CPMG signal acquisition (Rata, et al., Journal of Magnetic Resonance, 180(2): 229-235 (2006). τ (defined as half the SE echo time) was varied linearly from 0.05 to 3.3 ms over 22 steps with 4 scans per τ. This corresponds to b-values ranging from 0.001 to 400 ms/μm^2 where b=2/3γ^2g^2τ^3 (Carr, et al., Physical Review, 94(3): 630 (954), Hahn, Physical Review, 80(4): 580 (1950)). Points two through four (τ=0.2048 to 0.5143 ms, b=0.096 to 1.5 ms/μm^2) of diffusion data were fit with I(b)=I0 exp(−b ADC) to estimate the Apparent Diffusion Coefficient and I0. For measurements on spinal cords, the term ADCy is used, acknowledging that diffusion may be anisotropic but was measured only in the y direction, perpendicular to the cord.
as §2

[8] = test system: live spinal cords; assay: Osmolarity perturbation with sucrose, diffusion and DEXSY NMR on live spinal cords; type: cell-based, mouse; conditions: +300 mM sucrose, live samples
Method: as §1, with “MgSO4·7H2O). […]” for “MgSO4·7H2O).”
as §2

[9] = normal vs +300 mM sucrose, n=2 fixed samples

Cc1onc(O)c1CC(N)C(=O)O (stereo not drawn) [AMPA, α-amino-3-hydroxy-5-methyl-4-isoxazolepropionic acid]
effect on exchange rate ([1]; 5 μM and 10 μM AMPA, n=5): decreases; also recorded: causes exchange rate to decrease
reversibility of the effect on washout ([1]; AMPA washed out): recovers upon washout; also recorded: reversible
effect of a second dose on exchange rate ([1]; second dose of AMPA): less of an effect

C[C@@H]1O[C@@H](O[C@H]2C[C@@H](O)[C@]3(CO)[C@H]4[C@H](O)C[C@]5(C)[C@@H](C6=CC(=O)OC6)CC[C@]5(O)[C@@H]4CC[C@]3(O)C2)[C@H](O)[C@H](O)[C@H]1O [ouabain]
faster peak of exchange time distribution P(τk) [2]: reduced
decrease of apparent diffusion coefficient ([3]; 100 μM ouabain, n=3): 9±1%
increase of restricted water fraction f ([3]; 100 μM ouabain, n=3): 22±6%
ADCy ([3]; ouabain-treated spinal cords, mean±SD, n=3, 25° C.): 0.954±0.045 μm^2/ms
time until ouabain took effect after treatment [4]: roughly 10 minutes
exchange rate k after ouabain addition ([4]; 25° C., n=3, mean (±SD), normal k=140 s^−1): 36 s⁻¹ and 36 ± 11 s⁻¹
decrease of diffusion weighted spin-lattice relaxation rate R1 DW ([4]; n=3): 8±3%
exchange rate after completely blocking Na+/K+ pump ([1]; 100 μM ouabain): 50 s⁻¹
mean apparent diffusion coefficient ([1]; 100 μM ouabain): increases
restricted volume ([1]; 100 μM ouabain): increases
spin lattice relaxation rate ([1]; 100 μM ouabain): decreases
time until effect after ouabain hits the sample ([1]; 100 μM ouabain): roughly 10 minutes
timescale from no effect to full effect ([1]; 100 μM ouabain): roughly 2 minutes
decrease in water exchange rate ([1]; 100 μM ouabain, n=3): 67%
increase in relative cell volume ([1]; 100 μM ouabain, n=3): 27%
dose dependence of effect on exchange rate ([1]; 1-10 μM vs 100 μM ouabain): dose-independent effect; also recorded: all-or-none fashion
exchange rate after partially blocking Na+/K+ pump ([1]; doses as low as 1 μM ouabain, after a delay): 50 s⁻¹
normalized restricted volume ([1]; low (1-10 μM) doses of ouabain): not affected
time until effect after hitting the sample ([1]; low (1-10 μM) doses of ouabain, n=5): > 10 min
decrease of steady-state transmembrane water exchange rate [5]: 50%
reduction of Na+/K+-ATPase activity ([6]; 100 μM ouabain): 65%
further increase of the effect on Na+/K+-ATPase activity ([6]; doses higher than 100 μM ouabain): 6%

OC[C@H]1O[C@@](CO)(O[C@H]2O[C@H](CO)[C@@H](O)[C@H](O)[C@H]2O)[C@@H](O)[C@@H]1O [sucrose]
exchange rate recovered to, in ouabain-treated state ([1]; 100 mM sucrose added in ouabain-treated state (5 μM ouabain, FIG. 21), from 50 s^−1): 150 s⁻¹
effect on exchange rate in normal conditions ([1]; 100 mM sucrose, normal aCSF): small effect
change of ADCy ([7]; +300 mM sucrose, fixed samples): increases negligibly
change in exchange rate k [7, 9]: no change
change in restricted fraction [7, 9]: insignificant
change of ADCy [8]: increases ADCy significantly
